Patent publication US7723320B2, “Use of estrogen compounds to increase libido in women” (Pantarhei Bioscience B.V., priority 2001, dated 2010)
Like-named read-outs stand apart in the source and are kept apart here.

Legend:
[1] = Single dose po/sc bioavailability and elimination half-life study; format: in vivo; conditions: rat, plasma, female Sprague Dawley rats; for bioavailability: po
Description: To evaluate the oral (po) and subcutaneous (sc) bioavailability of estetrol (E4) and to determine the elimination half-life, single dose studies were performed in female Sprague Dawley rats followed by frequent blood sampling over a 24 hours interval.
Female Sprague Dawley rats were equipped with a permanent silatic heart catheter, as described by Kuipers et al. (1985, Gastroenterology, 88, 403-411). Rats were allowed to recover from surgery for 5 days and were than administered 0.05, 0.5, or 5 mg/kg E4 in 0.5 ml arachis oil. For sc administration, E4 was injected in the neck area using a 1 ml syringe and 20 g needle. For po administration of E4, rats were lightly anaesthesized with halothene/N2O/O2 and E4 was directly applied intragastrically using a plastic stomach intubator. Blood samples were subsequently collected via the heart catheter in heparinized tubes at 0.5, 1, 2, 4, 8 and 24 hours. Erytlrocytes were removed by centrifugation at 5000×g for 10 minutes at 4° C. and blood plasma was stored at −20° C. After thawing the plasma samples, liquid-liquid extraction (hexane/diethylether) was employed to prepare the E4-containing plasma samples for HPLC analysis (Perkin Elmer 200) and tandem mass spectrometry using a PE Sciex 3000 tandem mass spectrometer and APCI interface. With each sample batch, a calibration curve with 6 calibrators was recorded. The calibration curve was calculated using linear regression (correlation coefficient>0.98), which permitted quantitation of plasma concentrations. For each rat plasma, sampled at different time intervals, data were collected.
Plasma E4 concentration data were analysed with “WinNonLin, edition 3.1” and involved pharmacokinetic parameters for Cmax, half-life and AUC0-24.

human ERα = target: T1, human ERα (Homo sapiens, UniProt P03372); test: Competitive steroid binding assay, ERα; conditions: for inhibition at 0.003 µM: E4 3 nM; for inhibition at 0.01 µM: E4 10 nM; for inhibition at 0.03 µM: E4 0.03 μM; for inhibition at 0.1 µM: E4 0.1 μM; for inhibition at 0.3 µM: E4 0.3 μM
T1 sequence (P03372 1-595): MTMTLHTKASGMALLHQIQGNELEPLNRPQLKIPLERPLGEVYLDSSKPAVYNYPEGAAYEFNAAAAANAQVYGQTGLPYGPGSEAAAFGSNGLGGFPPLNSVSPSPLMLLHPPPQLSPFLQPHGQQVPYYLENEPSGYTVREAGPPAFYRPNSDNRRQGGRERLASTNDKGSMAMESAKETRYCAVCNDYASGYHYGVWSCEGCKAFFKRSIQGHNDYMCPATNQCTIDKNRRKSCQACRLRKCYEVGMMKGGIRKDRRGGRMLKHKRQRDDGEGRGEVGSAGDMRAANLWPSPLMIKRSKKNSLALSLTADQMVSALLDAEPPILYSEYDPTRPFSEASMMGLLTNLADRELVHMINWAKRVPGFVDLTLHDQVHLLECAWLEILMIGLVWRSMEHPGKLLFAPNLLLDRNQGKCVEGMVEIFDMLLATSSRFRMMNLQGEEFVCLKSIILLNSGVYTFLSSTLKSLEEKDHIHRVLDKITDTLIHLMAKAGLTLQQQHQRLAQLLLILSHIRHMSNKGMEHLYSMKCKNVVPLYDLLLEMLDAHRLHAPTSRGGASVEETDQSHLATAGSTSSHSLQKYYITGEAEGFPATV

[2] = Test 1, read-out: Percent inhibition of specific binding in ERα steroid binding assay
[3] = Test 2, read-out: Percent inhibition of specific binding in ERα steroid binding assay
[4] = Test 3, read-out: Percent inhibition of specific binding in ERα steroid binding assay

Question: What does the source list for `C[C@]12CC[C@@H]3c4ccc(O)cc4CC[C@H]3[C@@H]1[C@@H](O)[C@@H](O)[C@@H]2O` [E4, 1,3,5(10)-estratrien-3,15α,16α,17β-tetrol]?
Answer: half-life ([1]; other: subcutaneous and oral, sc and po single dose): 2 to 3 h; bioavailability ([1]; single dose 5.0 mg/kg, read-out: oral bioavailability relative to sc administered E4): 30 to 60%; bioavailability ([1]; single dose 0.05, 0.5 mg/kg, read-out: oral bioavailability relative to sc administration): 80 to 100%; inhibition at 0.003 µM (human ERα; [2]): 26%; inhibition at 0.003 µM (human ERα; [3]): 17%; inhibition at 0.003 µM (human ERα; [4]): 11%; inhibition at 0.01 µM (human ERα; [2]): 43%; inhibition at 0.01 µM (human ERα; [3]): 32%; inhibition at 0.01 µM (human ERα; [4]): 28%; inhibition at 0.03 µM (human ERα; [2]): 64%; inhibition at 0.03 µM (human ERα; [3]): 66%; inhibition at 0.03 µM (human ERα; [4]): 63%; inhibition at 0.1 µM (human ERα; [2]): 83%; inhibition at 0.1 µM (human ERα; [3]): 85%; inhibition at 0.1 µM (human ERα; [4]): 86%; inhibition at 0.3 µM (human ERα; [2]): 92%; inhibition at 0.3 µM (human ERα; [3]): 94%; inhibition at 0.3 µM (human ERα; [4]): 101%; inhibition at 1 µM (human ERα; E4 1 μM, Test 1, read-out: Percent inhibition of specific binding in ERα steroid binding assay): 98%; Relative ERα/ERβ preference (human ERα; from Ki values for ERα and ERβ): 400%
